Experimental data as given in PubChem BioAssay (NCI).
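Growth conditions: 96-well plates. Treatment: test compound, 48 hours, 5 concentrations. Analysis: linear interpolation between bracketing concentrations; unreached endpoints set to highest concentration. Here, GI50 denotes the concentration required for 50% inhibition of growth. TGI: total growth inhibition.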

Key:
Assay in all cases: NCI-60 cell line screen, 48 h
A498 renal = test system: A498 renal
HCT-116 colon = test system: HCT-116 colon
HCT-15 colon = test system: HCT-15 colon
HT29 colon = test system: HT29 colon
K-562 leukemia = test system: K-562 leukemia
KM12 colon = test system: KM12 colon
NCI-H23 lung = test system: NCI-H23 lung
SN12C renal = test system: SN12C renal
SNB-75 CNS = test system: SNB-75 CNS
UACC-62 melanoma = test system: UACC-62 melanoma

Row | SMILES | TGI (A498 renal) [µM] | TGI (HCT-116 colon) [µM] | TGI (HCT-15 colon) [µM] | TGI (HT29 colon) [µM] | TGI (K-562 leukemia) [µM] | TGI (KM12 colon) [µM] | TGI (NCI-H23 lung) [µM] | TGI (SN12C renal) [µM] | TGI (SNB-75 CNS) [µM] | TGI (UACC-62 melanoma) [µM] | GI50 (KM12 colon) [µM]
1 | CC(C#N)(NO)C(C)(C#N)NO (stereo unspecified) | > 100 | > 100 | > 100 | > 100 | > 100 | > 100 | > 100 | > 100 | > 100 | > 100 | –
2 | Cc1ccc([N+](=O)[O-])cc1S(=O)(=O)Nc1ccc(C2=NN(S(=O)(=O)c3cc([N+](=O)[O-])ccc3C)C(c3cccs3)C2)cc1 (stereo unspecified) | 78.6 | 77 | > 100 | > 100 | 88.3 | > 100 | 59.9 | > 100 | > 100 | 47.5 | –
3 | CCC1(O)C(=O)OCc2c1cc1n(c2=O)Cc2cc3cc4c(cc3nc2-1)OCO4 (stereo unspecified) | 0.0816 | 0.108 | 19 | 19.9 | > 100 | 5.69 | < 0.0109 | 4.1 | 0.0369 | 0.0509 | 0.0978
4 | COc1ccc(N2C(=O)C3ON(Cc4ccc(CC(N)=O)cc4)C(c4c5ccccc5c(C)c5ccccc45)C3C2=O)cc1 (stereo unspecified) | > 100 | 56.9 | 74.9 | 35 | 38 | > 100 | > 100 | > 100 | 38.1 | > 100 | –
5 | COc1cc(/C=C/C(=O)CC(=O)/C=C/c2cc(C)c(O)c(OC)c2)cc(C)c1O | > 100 | > 100 | > 100 | > 100 | > 100 | > 100 | > 100 | > 100 | > 100 | > 100 | –
6 | COc1cc(/C=C2\C(=O)N(c3cccc(NC(C)=O)c3)C(c3ccccc3)S2(=O)=O)cc(OC)c1OC (stereo unspecified) | > 100 | > 100 | > 100 | > 100 | > 100 | > 100 | > 100 | > 100 | > 100 | > 100 | –
7 | Cc1cc(=O)[nH]c2cc(NC(=O)C(C)NC(=O)C(C)NC(=O)C(C)NC(=O)OC(C)(C)C)ccc12 (stereo unspecified) | > 15 | > 15 | > 15 | > 15 | > 15 | > 15 | > 15 | > 15 | > 15 | > 15 | –
8 | Nc1cc(C2CCCc3c2[nH]c2ccccc32)ccc1O (stereo unspecified) | > 100 | > 100 | > 100 | > 100 | > 100 | > 100 | > 100 | > 100 | > 100 | > 100 | –
9 | N=c1oc2cc(O)ccc2cc1C(=O)Nc1ccccn1 | 98.2 | > 100 | > 100 | > 100 | > 100 | > 100 | > 100 | > 100 | > 100 | > 100 | –
10 | COc1ccc(SCc2cc(OC)ccc2OC)cc1 | > 87.1 | > 100 | > 66.3 | > 100 | > 51.3 | > 100 | > 100 | > 100 | > 52.8 | > 100 | –
